# Numbering of substitutions follows the chain as printed. Read-outs that look alike come from different tables or passages of the source.
# Experiments:
# Format in all cases: biochemical
# R878K mutated mAPA [1] = target: T1, R878K mutated mAPA (Mus musculus, UniProt P16406, R878K); assay: Kinetic parameters of substrate hydrolysis by R878K His-mAPA
# T1 construct: made in house; host or cells: stably transfected CHO-K1 cells
# T1 sequence (P16406 1-945 R878K): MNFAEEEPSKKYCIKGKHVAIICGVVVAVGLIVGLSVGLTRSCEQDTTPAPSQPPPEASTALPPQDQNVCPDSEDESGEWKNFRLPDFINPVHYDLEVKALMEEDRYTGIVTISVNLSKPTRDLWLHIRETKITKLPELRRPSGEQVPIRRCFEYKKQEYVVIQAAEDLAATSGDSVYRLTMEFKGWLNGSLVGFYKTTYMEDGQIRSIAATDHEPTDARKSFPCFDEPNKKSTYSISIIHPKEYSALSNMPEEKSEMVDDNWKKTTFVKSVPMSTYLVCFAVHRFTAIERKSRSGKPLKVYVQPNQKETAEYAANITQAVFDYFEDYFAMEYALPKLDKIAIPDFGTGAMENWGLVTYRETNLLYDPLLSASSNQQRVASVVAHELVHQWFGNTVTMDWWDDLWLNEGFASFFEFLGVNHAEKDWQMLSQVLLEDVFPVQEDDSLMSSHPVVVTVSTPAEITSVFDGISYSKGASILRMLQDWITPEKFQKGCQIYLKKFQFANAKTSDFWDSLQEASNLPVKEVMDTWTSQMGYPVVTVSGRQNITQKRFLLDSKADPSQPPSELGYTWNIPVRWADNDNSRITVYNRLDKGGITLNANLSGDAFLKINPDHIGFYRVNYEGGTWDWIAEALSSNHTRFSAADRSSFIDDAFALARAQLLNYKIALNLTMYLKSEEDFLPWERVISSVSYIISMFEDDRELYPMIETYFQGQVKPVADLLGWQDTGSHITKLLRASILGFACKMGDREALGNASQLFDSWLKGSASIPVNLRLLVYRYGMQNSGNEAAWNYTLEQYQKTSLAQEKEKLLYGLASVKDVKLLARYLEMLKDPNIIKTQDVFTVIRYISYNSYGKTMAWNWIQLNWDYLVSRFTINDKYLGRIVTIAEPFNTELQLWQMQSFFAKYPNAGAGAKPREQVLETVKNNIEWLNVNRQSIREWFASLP
# Description: (§1) Enzyme assays were carried out for wild-type and mutated His-mAPAs in 50 mM Tris-HCl buffer, pH 7.4, with or without 4 mM CaCl2, by monitoring the rate of hydrolysis of GluNA, as previously described. The sensitivity to Ca^2+ of purified wild-type and mutated His-mAPA was determinated by incubating 0.5 mM GluNA with 0 to 4 mM CaCl2 in a final volume of 100 μl of 50 mM Tris-HCl buffer, pH 7.4. All the assays were performed in black 96-well plates (solid black 96-well flat-bottomed non-treated plates with no lid; Corning Costar). All of the enzymatic studies were performed such that substrate hydrolysis rates were maintained below 10% (initial rate conditions). The kinetic curves were monitored by following the increase in fluorescence at 460 nm (lex = 330 nm), induced by the release of the β-naphthylamide fluorogenic part of the substrate by APA. Fluorescence signals were monitored by counting photons with a spectrophotometer (Fusion universal microplate analyser; Packard) equipped with a temperature control device and a plate shaker. The kinetic parameters (Km and kcat) were determined from Michaelis-Menten plots, using GraphPad Prism 4 software (GraphPad) with a final concentration of substrate (GluNA) from 0.005 to 5 mM with or without 4 mM Ca^2+. For evaluation of the substrate specificity of APA with or without 4 mM Ca^2+, the rate of hydrolysis of […] additional substrates, α-L-aspartate-β-naphthylamide (AspNA), α-L-alanine-β-naphthylamide (AlaNA) and basic α-L-lysine-β-naphthylamide (LysNA), was determined under the same experimental conditions as described for GluNA. The sensitivity of wild-type and mutated His-mAPAs to inhibition by [(3S)-3-amino-4-sulfanyl-butane-1-sulfonic acid] (EC33), glutamate-thiol (GluSH), glutamate-phosphonic-acid (GluPO3H2), methionine-thiol (MetSH) and lysine-thiol (LysSH) was determined by establishing dose-dependent inhibition curves for a final GluNA concentration of 0.5 mM in the presence or absence of 4 mM CaCl2. These compounds being linear competitive inhibitors, their Ki were calculated from the formula Ki = IC50/ (1+ [GluNA]/Km).
# wild-type mAPA = target: T2, wild-type mAPA (Mus musculus, UniProt P16406); assay: Inhibition of GluNA hydrolysis by purified recombinant wild-type His-mAPA; settings: wild-type mAPA; for Ki: 0.5 mM GluNA, read-out: Ki
# T2 construct: made in house; host or cells: stably transfected CHO-K1 cells
# T2 sequence (P16406 1-945): T1 sequence (P16406 1-945 R878K) with K878R
# Description: as §1
# R878K mutated mAPA [2] = target: T1, R878K mutated mAPA; assay: Inhibition of GluNA hydrolysis by purified recombinant R878K His-mAPA; settings: R878K mAPA; for Ki: 0.5 mM GluNA, read-out: Ki
# Description: as §1
Structure (SMILES),Km (R878K mutated mAPA [1]; 4 mM Ca2+) [µM],kcat (R878K mutated mAPA [1]; 4 mM Ca2+),Km (R878K mutated mAPA [1]; no Ca2+) [µM],kcat (R878K mutated mAPA [1]; no Ca2+) [s⁻¹],decrease in the affinity of the enzyme for the substrate compared to wild-type (factor) (R878K mutated mAPA [1]; presence of Ca2+),Ki (wild-type mAPA; 4 mM Ca2+) [µM],Ki (wild-type mAPA; absence of calcium) [µM],Ki (R878K mutated mAPA [2]; 4 mM Ca2+) [µM],Ki (R878K mutated mAPA [2]; absence of calcium) [µM],enhancement of inhibitory potency by 4 mM Ca2+ compared to Ki in the absence of Ca2+ (wild-type mAPA) [fold],enhancement of inhibitory potency by 4 mM Ca2+ compared to Ki in the absence of Ca2+ (R878K mutated mAPA [2]) [fold]
"N[C@@H](CCC(=O)O)C(=O)Nc1ccc2ccccc2c1 [HGluβNA, α-L-glutamyl-β-naphthylamide]",269 ± 5.1,135 ± 1.3 s⁻¹,12500 ± 1450,3.12 ± 0.4,6,–,–,–,–,–,–
"NCCCC[C@H](N)C(=O)Nc1ccc2ccccc2c1 [HLysβNA, α-L-lysine-β-naphthylamide]",229 ± 16.2,24.4 ± 0.5^n.s s-1,336 ± 54.3,9.0 ± 0.5,–,–,–,–,–,–,–
CSCC[C@H](N)CS [MetSH],–,–,–,–,–,9.18 ± 0.77,0.75 ± 0.046,5.14 ± 0.56,1.25 ± 0.057,–,–
"C[C@H](N)C(=O)Nc1ccc2ccccc2c1 [HAlaβNA, α-L-alanine-β-naphthylamide]",821 ± 142,26.2 ± 1.5 s⁻¹,670 ± 25.2,27.1 ± 4.8,–,–,–,–,–,–,–
"N[C@H](CS)CCS(=O)(=O)O [EC33, (3S)‐3‐amino‐4‐sulfanylbutane‐1‐sulfonic acid]",–,–,–,–,–,0.268 ± 0.022,–,1.52 ± 0.126,–,–,–

# Results, then the compound that gave them:
Km (R878K mutated mAPA [1]; 4 mM Ca2+) [µM],kcat (R878K mutated mAPA [1]; 4 mM Ca2+),Km (R878K mutated mAPA [1]; no Ca2+) [µM],kcat (R878K mutated mAPA [1]; no Ca2+) [s⁻¹],decrease in the affinity of the enzyme for the substrate compared to wild-type (factor) (R878K mutated mAPA [1]; presence of Ca2+),Ki (wild-type mAPA; 4 mM Ca2+) [µM],Ki (wild-type mAPA; absence of calcium) [µM],Ki (R878K mutated mAPA [2]; 4 mM Ca2+) [µM],Ki (R878K mutated mAPA [2]; absence of calcium) [µM],enhancement of inhibitory potency by 4 mM Ca2+ compared to Ki in the absence of Ca2+ (wild-type mAPA) [fold],enhancement of inhibitory potency by 4 mM Ca2+ compared to Ki in the absence of Ca2+ (R878K mutated mAPA [2]) [fold],Structure (SMILES)
–,–,–,–,–,13.4 ± 1.7,0.317 ± 0.03,13.9 ± 0.39,0.378 ± 0.02,–,–,"NCCCC[C@H](N)CS [LysSH, (2S)-2,6-diaminohexane-1-thiol]"
202 ± 5.7,42.2 ± 1.1 s⁻¹,3150 ± 328,0.2 ± 0.01,–,–,–,–,–,–,–,"N[C@@H](CC(=O)O)C(=O)Nc1ccc2ccccc2c1 [HAspβNA, α-L-aspartate-β-naphthylamide]"
–,–,–,–,–,0.314 ± 0.033,1.57 ± 0.27,2.1 ± 0.44,> 10,5.0,6.6,"N[C@H](CS)CCC(=O)O [GluSH, (4S)-4-amino-5-sulfanylpentanoic acid]"

# From paper PMC5587309, “Involvement of arginine 878 together with Ca^2+ in mouse aminopeptidase A substrate specificity for N-terminal acidic amino-acid residues” (PLoS ONE, 2017)
